# Laboratory results reported in patent US6413967B1, “Inhibition of novel calcium entry pathway in electrically non-excitable cells acting as an anti-proliferative therapy” (The University of Virginia Patents Foundation, priority 1995, dated 2002).
# Experiments:
# [1] = system: NVG current in Jurkat cells; assay: perforated patch clamp, non-voltage gated (NVG) current; type: cell-based, human; settings: membrane potential −60 mV, 300 nM thapsigargin, amiloride 100 μM, MnCl2 300 μM, NiCl2 1 mM, W-7 30 μM, NDGA 10 μM
# Protocol: All recordings were performed using the perforated patch method (Horn et al, J. Gen. Physiol. (1988) 92:145) of the gigaseal patch clamp technique (Hammil et al, Pflugers Arch (1981) 391:85) with microelectrodes of 5-10 megohm series resistance. In all solutions for voltage clamp, K^+ was replaced with Cs^+ to block outward K^+ currents (Fox et al, J. Physiol. (Lond.) (1987) 392:149). The bath solution contained (in mM): NaCl, 155; CsCl, 4.5; CaCl2, 2; MgCl2, 1; D-glucose, 5; HEPES, 10 (pH 7.4 with NaOH). The pipette solution contained (in mM): CsCl, 55; Cesium methanesulfonate, 70; CaCl2, 1; MgCl2, 7; HEPES, 10 (pH 7.3 with NaOH). Nystatin was made as a stock solution of 6 mg/100 μl DMSO, and 2 μl of the stock was added to 1 ml of the pipette solution for use. Both pipette and bath solutions were 290-300 mOsm. Experiments were performed on cells at room temperature using the Axopatch-1D patch clamp (Axon Instruments, Foster City, Calif.) after correction of junction potentials and leak subtraction. Records were low-pass filtered at 500 Hz, and the data were collected, stored and analyzed using the pClamp software program (Axon Instruments). For the non-voltage gated current traces, data is presented either as the tracing from a chart recorder or from the digital data in which the current was measured at 5 second intervals and plotted as individual points.
# human PBMC = assay: lymphocyte proliferation, 3H-thymidine incorporation; type: cell-based
# Protocol: Human PBMC were isolated from peripheral blood obtained from healthy donors. Cells were washed twice and were placed in triplicate wells at a concentration of 1×10^5 cells/ml in serum-free RPMI-1640 supplemented with 100 U of both penicillin and streptomycin. Drug treatments were added 15 minutes before stimulation of the cells and were present throughout the 1 hour stimulation period. Stimulation by mitogen (1 μg/ml PHA) in combination with 10 nM phorbol dibutyrate (PDB) was carried out for 1 hour at 37° C. Cells were subsequently washed 3 times with RPMI and were resuspended at a concentration of 1×10^5 cells/ml in RPMI-1640 supplemented with 5% FBS and 100 U/ml of penicillin and 100 μg/ml streptomycin. For the 48 hour proliferation phase, cells were cultured with (Ca^2+-independent proliferation) or without (Ca^2+-dependent proliferation) 10 nM PDB. 1 μCi of [^3H]-Thymidine (6.7 Ci/mmol; New England Nuclear, Boston, Mass.) was added to each well for the final 16 hours of the assay and at 48 h the cells were harvested and incorporated ^3H was counted by liquid scintillation counting.
# [2] = system: [Ca^2+]i in MDA-468 cells; assay: EGF receptor-stimulated Ca2+ influx in MDA-468 cells; type: cell-based, human; settings: effect the same post- and pre- EGF receptor stimulation
# Protocol: MDA468 cells are incubated with either indo-1 or the combination of fura-red/fluo-3 for 1 hour while still adherent in the maintenance flask in DMEM plus 5% fbs and 1 μg/ml insulin. Cells are removed by gentle scraping and washed three times in buffer A containing 1% charcoal stripped fbs (Nelson et al, Br. J. Cancer (1991) 63:933). The cells are then suspended to a final concentration of 1e6/ml and used as above in the SLM. For the human breast cancer cells, Ca^2+ entry is stimulated by the addition of 25 ng/ml EGF, rather than the antibody used above.
# [3] = system: IL-2 production by Jurkat cells; assay: interleukin-2 production with CT-EV bioassay; type: cell-based, human
# Protocol: Jurkat cells were suspended at a concentration of 2×10^6 cells/ml in serum-free RPMI-1640 containing 100 U/ml penicillin and 100 μg/ml streptomycin. Cells were treated for 15 min with the appropriate compound to be tested prior to stimulation with 1 μg/ml PHA plus 10 nM PDB (calcium-independent) or with PHA alone (calcium dependent). The cells were then incubated for 2 h at 37° C. Following the 2 h stimulation period, the cells were washed twice with RPMI-1640 supplemented with 5% FBS with 5 min incubations between washes and were resuspended at 2×10^6 cells/ml. The cell suspensions were placed in wells of 24 well plates and were incubated at 37° C. for 24 h. At the end of the incubation, the suspensions were collected, the cells were pelleted and the supernatant was stored at 4° C. for later assay for IL-2 levels. […] Standard curves were generated by addition of known amounts of recombinant human IL-2 (BioWhittaker) to allow determination of IL-2 content in each sample. Plates were then incubated at 37° C. for 48 h. To determine proliferation of CTEV cells, 1 μCi of [^3H]-Thymidine (6.7 Ci/mmol; New England Nuclear) was added to each well for the final 16 hours of the assay and at 48 h the cells were harvested and incorporated ^3H was counted by liquid scintillation counting.
# [4] = system: MDA-468 human breast cancer cells; assay: MDA-468 cell proliferation, tetrazolium dye; type: cell-based; settings: human breast cancer cell proliferation, 48 hours
# Protocol: The effect of various drugs on the proliferation of Jurkat T cells, MDA-468 human breast cancer cells and PC3 human prostate cancer cells was determined by incubating the cells with the indicated concentrations of drug for 48 hours. The number of viable cells remaining at the end of the incubation period was evaluated using the procedure outlined in Example 4.
# Cells are plated in triplicate in a 96-well flat-bottomed plate (Jurkat: 5e4 cells/well in RPMI-1640 plus 5% fbs; MDA468: 2.5e4 per well in DMEM plus 5% fbs and 11 μg/ml insulin) in the absence (control) or presence of drug at 3, 10, 30, and 100 μM. An additional control of 100 μM drug in RPMI-1640 plus 5% fbs or DMEM plus 5% fbs and 11 μg/Ml insulin with no cells is included with each run to control for possible drug interactions with the dye. The plate is then placed in a 5% CO2 37° C. incubator for 44 to 48 hours. 20 μl of dye solution containing a tetrazolium dye (3-(4,5-dimethylthiazol-2-yl)-5-(3-carboxymethoxyphenyl)-2-(4-sulfophenyl)-2H-tetrazolium, Owen's reagent) plus coupling reagent (phenazine methosulfate) is added to each well, the plate is returned to the incubator, and the absorbance at 490 nm is read using an ELISA plate reader 3 to 4 h (Jurkat cells) or 2 to 3 h (MDA-468 cells) later. All data are presented as percent of control (no drug addition). With this protocol, it is possible to determine the effect of 5 drugs at 4 concentrations in a single 96-well plate as outlined below: […]
structure (smiles),measurement,setting,value
"CC(Cc1ccc(O)c(O)c1)C(C)Cc1ccc(O)c(O)c1 (centres unmarked) [NDGA, 4,4′-(2,3-dimethyl-1,4-butanediyl)bis[1,2-benzenediol]]",effect on the thapsigargin-induced NVG current,[1],no effect
same,IC50,"human PBMC; Ca^2+-dependent protocol (PHA/PDB 1 h, then medium 48 h), n=6, read-out: IC50 for inhibition of proliferation",~3000 nM
same,effect on Ca^2+-independent proliferation,human PBMC; PHA/PDB 1 h then PDB 48 h,no effect
same,effect on Ca^2+-dependent proliferation,human PBMC; PHA/PDB 1 h then medium alone 48 h,inhibited proliferation
same,MDA [CA^2+]i,[2],↓
same,"effect on IL-2 secretion, Ca^2+-dependent stimulation",[3],suppressed
same,"effect on IL-2 secretion, stimulus not initially requiring extracellular Ca^2+",[3],little effect
same,MDA PROLIF,[4],↓
